In one assay the target is T1, Human GPR120 short form (Homo sapiens, UniProt Q5NUL3).
T1 construct: expressed in transfected cells
T1 sequence (Q5NUL3 1-361): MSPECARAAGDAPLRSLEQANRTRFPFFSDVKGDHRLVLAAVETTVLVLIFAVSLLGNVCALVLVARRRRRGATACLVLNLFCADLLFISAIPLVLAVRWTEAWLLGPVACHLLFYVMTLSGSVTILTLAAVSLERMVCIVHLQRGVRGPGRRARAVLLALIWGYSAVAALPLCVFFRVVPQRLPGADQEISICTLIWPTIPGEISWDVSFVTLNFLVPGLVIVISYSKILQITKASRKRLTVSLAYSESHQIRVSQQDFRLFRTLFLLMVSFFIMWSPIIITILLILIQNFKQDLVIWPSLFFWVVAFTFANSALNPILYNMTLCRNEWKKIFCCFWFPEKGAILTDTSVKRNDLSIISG
The experiment in a line: Human GPR120 calcium flux assay, Procedure Calcium B (4200 cells/well). It counts as cell-based. An outline of the steps: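 HEK293 cells stably expressing human GPR120 (NM_001195755.1), 4200 cells/well, starved 1 h and loaded with Fluo-4 NW plus probenecid. Ligand-evoked calcium flux read on FLIPR for 300 s after a 10 s baseline. RFU = Fmax−Fmin; EC50 from four-parameter concentration-response fit.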
A general note: Calcium flux is commonly read through the fluorescence of an indicator in the cells.

Assay [1] concerns the target T2, short form of the GPR120 receptor (Homo sapiens, UniProt Q5NUL3).
T2 construct: host or cells: PathHunter CHO-K1 GPR120S β-Arrestin Cell Line
The experiment in a line: Human GPR120 DiscoveRx PathHunter Beta-Arrestin assay, Procedure β-arrestin B. The assay is classed as cell-based.

This passage reports EC50 results from patent publication US11230526B1, “Cylcoalkenyl derivatives useful as agonists of the GPR120 and/or GPR40 receptors” (Janssen Pharmaceutica NV, priority 2018, dated 2022).

Broadly, the EC50 is the midpoint of the concentration-response curve.

T2 sequence (P32121 whole entry partner, one chain of several): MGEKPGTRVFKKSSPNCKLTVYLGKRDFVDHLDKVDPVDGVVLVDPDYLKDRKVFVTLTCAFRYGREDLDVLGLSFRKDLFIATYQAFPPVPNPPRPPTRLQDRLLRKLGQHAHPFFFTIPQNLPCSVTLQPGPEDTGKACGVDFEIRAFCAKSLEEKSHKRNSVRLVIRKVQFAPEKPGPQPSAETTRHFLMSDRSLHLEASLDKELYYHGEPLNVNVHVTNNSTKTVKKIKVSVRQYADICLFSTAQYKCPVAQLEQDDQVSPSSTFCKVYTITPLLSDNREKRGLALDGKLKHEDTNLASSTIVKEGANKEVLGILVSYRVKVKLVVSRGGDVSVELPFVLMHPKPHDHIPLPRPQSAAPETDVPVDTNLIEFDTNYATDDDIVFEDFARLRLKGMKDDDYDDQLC

For the compound `Cc1c(CCC(=O)O)ccc(OCC2=C(c3ccc(F)cc3)CCC2)c1C` [Compound 4, 3-[4-[[2-(4-fluorophenyl)cyclopenten-1-yl]methoxy]-2,3-dimethyl-phenyl]Propanoic Acid], the values for the EC50 (on Human GPR120 short form; in assay [1]) were 44 nM and 164 nM, respectively.
The like results for `Cc1ccc(C2=C(COc3ccc(CCC(=O)O)c(F)c3F)CCC2)cc1F` [Compound 78, 3-(2,3-difluoro-4-((2-(3-fluoro-4-methylphenyl)cyclopent-1-en-1-yl)methoxy)phenyl)Propanoic Acid] were, in that order, 34 nM and 75 nM.
On to `Cc1ccc(C2=C(COc3ccc(CCC(=O)O)c(F)c3F)CCC2)cc1N` [Compound 93, 3-(4-((2-(3-amino-4-methylphenyl)cyclopent-1-en-1-yl)methoxy)-2,3-difluorophenyl)Propanoic Acid], for which the EC50 came to 643 nM at Human GPR120 short form and 587 nM in assay [1].
The like results for `O=C(O)CCc1ccc(OCC2=C(c3ccc(Cl)cc3)CCC2)c(F)c1F` [Compound 70, 3-[4-[[2-(4-chlorophenyl)cyclopenten-1-yl]methoxy]-2,3-difluoro-phenyl]Propanoic Acid] were, in that order, 23 nM and 73 nM.
With `Cc1ccc(C2=C(COc3ccc(CCC(=O)O)c(F)c3F)CCC2)c(C)c1` [Compound 72, 3-(4-((2-(2,4-dimethylphenyl)cyclopent-1-en-1-yl)methoxy)-2,3-difluorophenyl)Propanoic Acid], the EC50 came to 245 nM at Human GPR120 short form and 648 nM in assay [1].
The matching figures for `O=C(O)CCc1ccc(OCC2=C(c3ccc(Cl)cc3)CCC2)c(F)c1` [Compound 149, 3-[4-[[2-(4-chlorophenyl)cyclopenten-1-yl]methoxy]-3-fluoro-phenyl]Propanoic Acid]: 24 nM and 90 nM.
The matching figures for `Cc1cc(CCC(=O)O)ccc1OCC1=C(c2ccc(Cl)cc2)CCCC1` [Compound 483, 3-[4-[[2-(4-chlorophenyl)cyclohexen-1-yl]methoxy]-3-methyl-phenyl]Propanoic Acid]: 52 nM and 155 nM.
The matching figures for `Cc1cc(CCC(=O)O)ccc1OCC1=C(c2ccc(Cl)cc2)CCC(F)(F)C1` [Compound 467, 3-(4-((4′-chloro-4,4-difluoro-3,4,5,6-tetrahydro-[1,1′-biphenyl]-2-yl)methoxy)-3-methylphenyl)Propanoic Acid]: 40 nM and 104 nM.
As for `O=C(O)CCc1ccc(OCC2=C(c3ccc(Cl)cc3)CCC2)cc1` [Compound 153, 3-[4-[[2-(4-chlorophenyl)cyclopenten-1-yl]methoxy]phenyl]Propanoic Acid], the results for the EC50 (on Human GPR120 short form; in assay [1]) were 23 nM and 93 nM, respectively.
The like results for `O=C(O)CCc1c(F)c(F)c(OCC2=C(c3ccc(Cl)cc3)CCC2)c(F)c1F` [Compound 122, 3-[4-[[2-(4-chlorophenyl)cyclopenten-1-yl]methoxy]-2,3,5,6-tetrafluoro-phenyl]Propanoic Acid] were, in that order, 247 nM and 397 nM.
The like results for `Cc1ccc(C2=C(COc3ccc(CCC(=O)O)c(C)c3C)CCC2)cc1F` [Compound 80, 3-(4-((2-(3-fluoro-4-methylphenyl)cyclopent-1-en-1-yl)methoxy)-2,3-dimethylphenyl)Propanoic Acid] were, in that order, 19 nM and 139 nM.
The matching figures for `Cc1ccc(C2=C(COc3ccc(CCC(=O)O)c(F)c3F)CCC2)cc1` [Compound 94, 3-(2,3-difluoro-4-((2-(p-tolyl)cyclopent-1-en-1-yl)methoxy)phenyl)Propanoic Acid]: 23 nM and 47 nM.
For `O=C(O)CCc1ccc(OCC2=C(c3ccc(Cl)cc3)CCCC2)c(F)c1` [Compound 511, 3-[4-[[2-(4-chlorophenyl)cyclohexen-1-yl]methoxy]-3-fluoro-phenyl]Propanoic Acid], the EC50 on Human GPR120 short form came to 35 nM; in assay [1] it was 187 nM.
